Experimental data taken from patent publication US11178871B2, “Herbicidal pyrimidine compounds” (BASF SE, priority 2016, dated 2021).

What was measured:
Type in all cases: in vivo
Apera spica-venti [1] = assay: greenhouse test, pre-emergence treatment, APESV
Summary of the method: (§1)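 Pre-emergence greenhouse test: seeds sown per species in loamy sand (about 3.0% humus), aqueous suspension or emulsion of active sprayed right after sowing, pots covered until rooting. Kept at 10-25 °C or 20-35 °C for 2 to 4 weeks; damage scored 0 (none) to 100 (no emergence/complete destruction).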

Amaranthus retroflexus [2] = assay: greenhouse test, pre-emergence treatment, AMARE
From the text: (§2) The culture containers used were plastic flowerpots containing loamy sand with approximately 3.0% of humus as the substrate. The seeds of the test plants were sown separately for each species.
For the pre-emergence treatment, the active ingredients, which had been suspended or emulsified in water, were applied directly after sowing by means of finely distributing nozzles. The containers were irrigated gently to promote germination and growth and subsequently covered with transparent plastic hoods until the plants had rooted. This cover caused uniform germination of the test plants, unless this had been impaired by the active ingredients.
(§3) Depending on the species, the plants were kept at 10-25° C. or 20-35° C., respectively.
(§4) The test period extended over 2 to 4 weeks. During this time, the plants were tended, and their response to the individual treatments was evaluated.
(§5) Evaluation was carried out using a scale from 0 to 100. 100 means no emergence of the plants, or complete destruction of at least the aerial moieties, and 0 means no damage, or normal course of growth. A good herbicidal activity is given at values of at least 70 and a very good herbicidal activity is given at values of at least 85.
(§6) The plants used in the greenhouse experiments were of the following species: […]

Alopecurus myosuroides = assay: greenhouse test, post-emergence treatment, ALOMY
Summary of the method: (§7)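 Post-emergence: plants grown in loamy sand (~3.0% humus) to 3-15 cm, then sprayed with active ingredient suspended or emulsified in water; kept at 10-25 °C or 20-35 °C by species. Damage rated visually after 2-4 weeks, 0 (none) to 100 (complete destruction of aerial parts).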

Echinocloa crus-galli [3] = assay: greenhouse test, post-emergence treatment, ECHCG; conditions: 500 g/ha
Summary of the method: as §7

Polygonum convolvulus = assay: greenhouse test, post-emergence treatment, POLCO; conditions: 500 g/ha
From the text: as §2
(§8) For the post-emergence treatment, the test plants were first grown to a height of 3 to 15 cm, depending on the plant habit, and only then treated with the active ingredients which had been suspended or emulsified in water. For this purpose, the test plants were either sown directly and grown in the same containers, or they were first grown separately as seedlings and transplanted into the test containers a few days prior to treatment.
as §3, §4, §5, §6

Amaranthus retroflexus [4] = assay: greenhouse test, post-emergence treatment, AMARE; conditions: 500 g/ha
Summary of the method: as §7

Apera spica-venti [5] = assay: greenhouse test, post-emergence treatment, APESV; conditions: 500 g/ha
From the text: as §2, §8, §3, §4, §5, §6

Echinocloa crus-galli [6] = assay: greenhouse test, pre-emergence treatment, ECHCG; conditions: 2000 g/ha
Summary of the method: as §1

Avena fatua = assay: greenhouse test, post-emergence treatment, AVEFA; conditions: 2000 g/ha
Summary of the method: as §7

[7] = printed under post-emergence, method not restated
[8] = 500 g/ha, printed under post-emergence, method not restated

OC1(c2nc(C3CC3)ncc2-c2ccccc2Cl)C(F)(F)C(F)(F)C(F)(F)C(F)(F)C1(F)F [Ex. 229]
herbicidal activity (Apera spica-venti [1]; 1000 g/ha): very good (a very good herbicidal activity is given at values of at least 85) | herbicidal activity (Amaranthus retroflexus [2]; 1000 g/ha): good (A good herbicidal activity is given at values of at least 70)

COC(C)Cc1nc(C2CC2)ncc1-c1ccccc1Cl (stereo not drawn) [Ex. 233]
herbicidal activity (Amaranthus retroflexus [2]; 2000 g/ha): very good (a very good herbicidal activity is given at values of at least 85)

COC(=O)C(C)c1nc(C2CC2)ncc1-c1ccccc1Cl (stereo not drawn) [Ex. 87]
herbicidal activity (Amaranthus retroflexus [2]; 2000 g/ha): good (A good herbicidal activity is given at values of at least 70) | herbicidal activity (Alopecurus myosuroides; post-emergence, 2000 g/ha): very good (a very good herbicidal activity is given at values of at least 85)

CCc1nc(CC)c(-c2nc(C3CC3)ncc2-c2ccccc2Cl)o1 [Ex. 310]
herbicidal activity (Echinocloa crus-galli [3]; [7]): very good (a very good herbicidal activity is given at values of at least 85) | herbicidal activity (Polygonum convolvulus): very good (a very good herbicidal activity is given at values of at least 85) | herbicidal activity (Alopecurus myosuroides; [8]): very good (a very good herbicidal activity is given at values of at least 85) | herbicidal activity (Alopecurus myosuroides; post-emergence, 500 g/ha): very good (a very good herbicidal activity is given at values of at least 85) | herbicidal activity (Amaranthus retroflexus [4]): very good (a very good herbicidal activity is given at values of at least 85) | herbicidal activity (Apera spica-venti [5]): very good (a very good herbicidal activity is given at values of at least 85)

Cc1nc(O)oc1-c1nc(C2CC2)ncc1-c1ccccc1Br [Ex. 312]
herbicidal activity (Echinocloa crus-galli [3]; [7]): very good (a very good herbicidal activity is given at values of at least 85) | herbicidal activity (Echinocloa crus-galli [3]; post-emergence): very good (a very good herbicidal activity is given at values of at least 85) | herbicidal activity (Polygonum convolvulus): very good (a very good herbicidal activity is given at values of at least 85) | herbicidal activity (Alopecurus myosuroides; [8]): very good (a very good herbicidal activity is given at values of at least 85) | herbicidal activity (Alopecurus myosuroides; post-emergence, 500 g/ha): very good (a very good herbicidal activity is given at values of at least 85) | herbicidal activity (Apera spica-venti [5]): very good (a very good herbicidal activity is given at values of at least 85)

COc1ncc(OC)c(-c2nc(C3CC3)ncc2-c2ccccc2Cl)n1 [Ex. 251]
herbicidal activity (Amaranthus retroflexus [2]; 500 g/ha): very good (a very good herbicidal activity is given at values of at least 85)

Cc1noc(-c2nc(C3CC3)ncc2-c2ccccc2Cl)n1 [Ex. 295]
herbicidal activity (Apera spica-venti [1]; 2000 g/ha): very good (a very good herbicidal activity is given at values of at least 85) | herbicidal activity (Amaranthus retroflexus [2]; 2000 g/ha): very good (a very good herbicidal activity is given at values of at least 85) | herbicidal activity (Alopecurus myosuroides; post-emergence, 2000 g/ha): very good (a very good herbicidal activity is given at values of at least 85) | herbicidal activity (Echinocloa crus-galli [6]): very good (a very good herbicidal activity is given at values of at least 85) | herbicidal activity (Avena fatua): very good (a very good herbicidal activity is given at values of at least 85)

CCc1nc(CC)c(-c2nc(C3CC3)ncc2-c2ccccc2Br)o1 [Ex. 311]
herbicidal activity (Echinocloa crus-galli [3]; [7]): very good (a very good herbicidal activity is given at values of at least 85) | herbicidal activity (Polygonum convolvulus): very good (a very good herbicidal activity is given at values of at least 85) | herbicidal activity (Alopecurus myosuroides; [8]): very good (a very good herbicidal activity is given at values of at least 85) | herbicidal activity (Alopecurus myosuroides; post-emergence, 500 g/ha): very good (a very good herbicidal activity is given at values of at least 85) | herbicidal activity (Amaranthus retroflexus [4]): very good (a very good herbicidal activity is given at values of at least 85) | herbicidal activity (Apera spica-venti [5]): very good (a very good herbicidal activity is given at values of at least 85)

OC(c1cccs1)C(O)c1nc(C2CC2)ncc1-c1ccccc1Cl (stereo not drawn) [Ex. 246]
herbicidal activity (Amaranthus retroflexus [2]; 500 g/ha): very good (a very good herbicidal activity is given at values of at least 85)
